Reference: US20230339866A1, “Quinazoline compounds and the use thereof in the treatment of cancer” (TROBIO THERAPEUTICS PTY LTD, priority 2020, published 2023)

What was measured:
A549 (NSCLC) = assay: Anti-proliferative activity (Cell-Titre luminescence) against A549 non-small cell lung cancer cells; type: cell-based; conditions: Homo sapiens, A549, 72 h, 72 h exposure, Cell-Titre luminescent reagent
Procedure, shortened: (§1)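 EC50 derived by nonlinear variable-slope sigmoidal fit of luminescent Cell-Titre viability, normalised to vehicle control. Compound (0.1–30 μM, six concentrations) applied for 72 h after 24 h attachment at 37 °C, 5% CO2.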

A2780 (ovarian) = assay: Anti-proliferative activity (Cell-Titre luminescence) against A2780 ovarian cancer cells; type: cell-based; conditions: Homo sapiens, A2780, 72 h, 72 h exposure, Cell-Titre luminescent reagent
Procedure, shortened: as §1

Caco-2 (colorectal) = assay: Anti-proliferative activity against Caco-2 colorectal cancer cells; type: cell-based; conditions: Homo sapiens, 72 h exposure
Procedure: (§2) The ability of compounds of the invention to inhibit the proliferation of cancer cells representative of non-small cell lung cancer and ovarian cancer (Table 2), pancreatic cancer, colorectal cancer and prostate cancer (Table 3) was assessed. Briefly, a predetermined number of cells as calculated from cell growth assays for each of the cell lines employed were seeded into their respective culture medium (using ATCC culture parameters—http://www.atcc.org) and cultured for 24 h at 37° C. and 5% CO2 in 96-well culture plates. Once attached, each cell line was then exposed to various concentrations of each respective analogue (30, 10, 3, 1, 0.3 and 0.1 μM), cultured for a further 72 h and exposed to Cell-Titre luminescent reagent (100 μL/well) for a further 30 min. Luminescence was captured using an EnVision multilabel reader and the data for each analogue concentration compared against no treatment control. Cell viability was normalised to control (vehicle alone) and dose response curves, and half maximal effective concentration (EC50) values were determined using Graph Pad Prism 6 (nonlinear regression sigmoidal dose-response variable slope).

MIA PaCa-2 (pancreatic) = assay: Anti-proliferative activity against MIA PaCa-2 pancreatic cancer cells; type: cell-based; conditions: Homo sapiens, 72 h exposure
Procedure: as §2

PC3 (prostate) = assay: Anti-proliferative activity against PC3 prostate cancer cells; type: cell-based; conditions: 72 h exposure
Procedure: as §2

[1] = tested on: SK-N-SH neuroblastoma cells; assay: Anti-proliferative activity (MTS assay) against SK-N-SH neuroblastoma cells; type: cell-based; conditions: Homo sapiens, SK-N-SH, 72 h
Procedure: The ability of compounds of the disclosure to inhibit the proliferation of SK-N-SH neuroblastoma cells was also assessed. […] Cell viability was normalised to control (vehicle alone) and dose response curves and IC50 values (Table 4) were determined using Graph Pad Prism 6.

[2] = tested on: Tpm3.1-containing actin microfilaments; assay: Disruption of Tpm3.1-containing actin microfilaments in SK-N-SH cells (imaging and quantitation); type: cell-based; conditions: SK-N-SH cells expressing Tpm3.1-mCherry, 24 hours, two concentrations
Procedure: The ability of compounds 57, 87 and 92 to disrupt Tpm3.1-containing actin microfilaments was investigated in SK-N-SH neuroblastoma cells that express Tpm3.1 labelled with the mCherry fluorophore. Cells were seeded at 3×10^4 cells per well in a volume of 1000 μL complete media onto a 12 well plate containing 13 mm coverslips and left to plate down for 24 hours prior to treatment. Cells were then treated with DMSO and two concentrations of the test compounds. 24 hours post-treatment, cells were fixed with 16% paraformaldehyde (PBS) and stained with 488-Atto-Phalloidin to visualise the actin filament bundles. Single plane images were obtained using the Olympus IX83 epi-fluorescence microscope. Ten fields of view were collected for both Tpm3.1 mCherry fluorophore (FIG. 4) and 488-Atto-Phalloidin (FIG. 5) with each treatment condition.
Quantitation of either Tpm3.1 mCherry filaments or 488-Atto-Phalloidin filaments was performed using ImageJ 1.52p software (ImageJ, NIH). The mean pixel intensity from a cell was measured by using a line across the entire cell cytoplasmic area above or below the nuclear region. The line was made to cross the filament bundles at a […] for the measurement rather than run along a single filament. A total of n=100 cells were measured from ten fields of view. Cells with pixel intensities that were more than twice the average intensity in the field were excluded from the measurement. The mean pixel intensity from n=100 cells was imported into Microsoft Excel to obtain the average intensity of either Tpm3.1 mCherry filaments or 488-Atto-Phalloidin filaments from each treatment condition. Values were normalised as a percent of the 0 μM control in order to generate a bar graph.

[3] = tested on: A2780 ovarian cancer cells; conditions: Bliss score; for Paclitaxel Max. Synergy / Paclitaxel Total Synergy: combination with paclitaxel; for Paclitaxel Max. Synergy / Vinorelbine Max. Synergy: highest individual score of 6×6 matrix; for Paclitaxel Total Synergy / Vinorelbine Total Synergy: sum over matrix; for Vinorelbine Max. Synergy / Vinorelbine Total Synergy: combination with vinorelbine
Procedure: (§3) The A2780 cell line was maintained as a monolayer in Dulbeccos Modified Eagles medium (DMEM) supplemented with 10% foetal bovine serum (FBS) and grown at 37° C. in a humidified atmosphere with 5% CO2. […] Each screening plate contained one 6×6 dose matrix for two drugs using two-fold dilution steps. […] Viability was measured after 72 hours using a standard MTS assay.
(§4) Synergistic drug interactions were determined for each pairwise drug combination by applying the Bliss-independence model that assumes independence of drug mechanisms.
(§5) The Bliss additivism model was used to calculate a predicted combined response C to two single agents with responses A and B (using GI values), as follows:
(§6) The final score for any combination was reported as the difference between the value predicted by the additive model and the experimentally observed value, normalised to 100. Using GI values the maximum possible synergy score is 100, with 0 indicating no synergy and negative indicating possible antagonism. Scores were also reported as a “Max synergy” score, which is the highest individual synergy score for each combination matrix, and a “Total synergy” score, which was obtained by summation of each individual synergy score for the matrix.

[4] = tested on: A2780 ovarian cancer cells; assay: cells; conditions: Homo sapiens, A2780, 72 h, read-out: IC50 values used for the dose matrix (compounds)
Procedure: as §3, §4, §5, §6

Tpm3.1 [5] = biological target: T1, Tpm3.1 (Homo sapiens, UniProt P06753); assay: Actin depolymerisation assay; type: biochemical; conditions: 50 μmol/L test compound, pyrene-labelled F-actin, 160 minutes
Procedure: A 12 μmol/L solution of labelled F-actin was prepared by polymerising the monomeric actin (35% pyrene labelled Rabbit Muscle (Cytoskeleton Inc)) into filaments in the presence of buffer T (100 mmol/L NaCl; 10 mmol/L Tris HCl pH 7.5; 2 mmol/L MgCl2; 1 mmol/L EGTA; 0.5 mmol/L DTT) with added ATP (0.2 mmol/L), for 1 hour in the dark at room temperature. Tpm3.1 (10 μmol/L) was reduced in buffer T containing 1 mmol/L DTT at 70° C. for 6 minutes and centrifuged at 60,000 rpm for 30 minutes to remove nonreduced dimers. […] Duplicate samples were diluted 12-fold using an F-actin polymerisation buffer (100 mmol/L NaCl; 10 mmol/L Tris HCl pH 7; 2 mmol/L MgCl2; 1 mmol/L EGTA; 0.2 mmol/L ATP; 1 mmol/L DTT) and the depolymerisation rates of F-actin alone, F-actin/Tpm3.1, and the F-actin/Tpm3.1/test compound filament complex were measured using a Costar 3915 fluorescence plate reader (407 nm) at 36-second intervals for 160 minutes at room temperature. Data were normalized to the initial fluorescence value and polymerisation curves of duplicate samples were fitted to a two-phase exponential decay model using OriginPro 9.1 (OriginLab) (FIG. 3A). Percent polymerisation was determined at t160 as a function of to (100%) (FIG. 3B, p<0.0001).
Target sequence in this assay (P06753 1-248 isoform P06753-2): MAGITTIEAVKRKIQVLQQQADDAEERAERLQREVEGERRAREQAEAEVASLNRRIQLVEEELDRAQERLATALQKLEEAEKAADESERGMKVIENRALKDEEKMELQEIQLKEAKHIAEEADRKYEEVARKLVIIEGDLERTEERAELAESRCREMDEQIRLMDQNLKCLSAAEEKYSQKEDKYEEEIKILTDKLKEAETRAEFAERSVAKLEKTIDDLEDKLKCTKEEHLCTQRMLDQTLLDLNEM

Tpm3.1 [6] = biological target: T1, Tpm3.1; assay: Circular dichroism spectroscopy, thermal unfolding of Tpm3.1 peptides; type: binding; set-up: N-terminus (residues 2-80 with an initial Ala-Gly dipeptide to mimic N-terminal acetylation) of Tpm3.1; Peptides corresponding to the C-terminus (residues 139-248) and N-terminus; made in house; conditions: test compound 100 μM, peptide 20 μM, CD at 222 nm
Procedure: The interactions of compounds 11, 13, 32 and 92 with the N-terminus and overlap region of Tpm3.1 were measured using circular dichroism (CD) spectroscopy (see FIG. 1). Peptides corresponding to the C-terminus (residues 139-248) and N-terminus (residues 2-80 with an initial Ala-Gly dipeptide to mimic N-terminal acetylation) of Tpm3.1 were prepared as described in the literature (Janco et al., 2019). CD spectra and thermal unfolding isotherms of N_82AA_Tpm3.1 and C_109AA_Tpm3.1 peptides were acquired on a Chirascan Plus CD Spectrometer (Applied Photophysics Limited, U.K.) in stoppered 0.5 mm cuvettes (48/Q/0.5; Starna Scientific Ltd.). Proteins were dialyzed O/N against 10 mM NaH2 PO4, 150 mM NaCl, 75 μM TCEP (added prior to experiment), 1% (v/v) acetonitrile pH 7 buffer. Final concentration of peptides was 20 μM. Tpm samples containing the test compound (100 μM) were incubated at 37° C. O/N. CD spectra were measured from 195 to 260 nm with a 1 nm step size and a […], taking 3 to 4 averages at 37° C. The thermal unfolding was carried at 222 nm over the range 20-85° C. at the rate of 1° C./min. Sample was cooled down to the initial temperature and heating procedure was repeated 2 to 3 times. To obtain information of the major thermal transitions from individual isotherms, data were further smoothed by the Savitzky-Golay method (5-point window), differentiated and then fitted to multiple Gaussian peaks as described previously (Janco et al., 2012) (FIG. 2).
Target sequence in this assay (P06753 with tags, fused parts or gaps isoform P06753-2): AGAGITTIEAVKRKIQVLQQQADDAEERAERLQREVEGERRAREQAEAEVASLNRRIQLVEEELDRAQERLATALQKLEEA

IC50 (A549 (NSCLC)) | IC50 (A2780 (ovarian)) | IC50 (Caco-2 (colorectal)) | IC50 (MIA PaCa-2 (pancreatic)) | IC50 (PC3 (prostate)) | IC50 [1] | IC50 [4] | Effect on melting profile of the Tpm3.1 N-terminal peptide construct (Tpm3.1 [6]) | Effect on stability of the Tpm3.1 N-terminal peptide (Tpm3.1 [6]) | SMILES | Disruption of Tpm3.1-containing actin microfilaments [2] | Paclitaxel Max. Synergy [3] | Paclitaxel Total Synergy [3] | Vinorelbine Max. Synergy [3] | Vinorelbine Total Synergy [3] | Inhibition of Tpm3.1 protection of actin filaments from depolymerisation (Tpm3.1 [5])
2.36 µM | 2.6 µM | 4.33 µM | 2.75 µM | 4.12 µM | 1.38 µM | 3 µM | – | – | Fc1cccc(CCNc2nc(NCCc3c[nH]cn3)c3ccccc3n2)c1 [Compound 87, N^4-(2-(1H-imidazol-4-yl)ethyl)-N^2-(3-fluorophenethyl)quinazoline-2,4-diamine] | disrupt Tpm3.1-containing actin microfilaments in a dose-dependent manner | 9.54 | 28.53 | 24.46 | 160.51 | –
1.3 µM | 2.22 µM | 2.48 µM | 3.19 µM | 4.49 µM | 2 µM | 5 µM | alter the melting profile | decrease the stability | OCCCNc1nc(NCCc2cccc(C(F)(F)F)c2)nc2ccccc12 [Compound 92, 3-((2-((3-(trifluoromethyl)phenethyl)amino)quinazolin-4-yl)amino)propan-1-ol] | disrupt Tpm3.1-containing actin microfilaments in a dose-dependent manner | 17.97 | 100.06 | 27.55 | 204.68 | inhibit the ability of Tpm3.1 to protect actin filaments from depolymerisation
1.53 µM | 0.655 µM | 1.12 µM | 1.02 µM | 1.48 µM | 1.11 µM | – | – | – | CCc1ccc(CCNc2nc(NCCN3CCN(C)CC3)c3ccccc3n2)cc1 [Compound 57, N^2-(4-ethylphenethyl)-N^4-(2-(4-methylpiperazin-1-yl)ethyl)quinazoline-2,4-diamine] | disrupt Tpm3.1-containing actin microfilaments in a dose-dependent manner | – | – | – | – | –
